Test results published in ChEMBL document CHEMBL1250548, “Synthesis and anti-HIV-1 evaluation of phosphonates which mimic the 5'-monophosphate of 4'-branched 2',3'-didehydro-2',3'-dideoxy nucleosides” (Bioorg Med Chem, 2010).
pIC50: −log10 of the molar value.

What was measured:
[1] = test system: Human immunodeficiency virus 1; assay: Antiviral activity against HIV1 infected in human MT4 cells assessed as protection against virus-induced cytopathic effect; format: functional, organism-based; conditions: Human immunodeficiency virus 1, MT4
[2] = Cytotoxicity against human MT4 cells assessed as reduction of cell viability; format: cell-based

SMILES | pIC50 [1] | CC50 [2]
Cc1cn([C@H]2C=C[C@@H](OCP(=O)(O)O)O2)c(=O)[nH]c1=O | 4.92 | > 600 µM
C#C[C@@]1(OCP(=O)(O)O)C=C[C@H](n2cnc3c(N)ncnc32)O1 | 5.77 | > 100 µM
C#C[C@@]1(OCP(=O)(O)O)C=C[C@H](n2cc(C)c(=O)[nH]c2=O)O1 | < 4.00 | > 100 µM

Stronger by pIC50 [1], values ahead:

pIC50 [1] | SMILES | CC50 [2]
5.92 | Cc1cn([C@H]2C=C[C@@H](CO)O2)c(=O)[nH]c1=O [STAVUDINE] | > 600 µM
5.82 | Nc1ncnc2c1ncn2[C@H]1C=C[C@@H](OCP(=O)(O)O)O1 | > 600 µM
